Consider eight compounds from PubChem BioAssay (NCI).

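Values below derive from 48-hour exposures of cells grown in 96-well plates, with endpoints linearly interpolated between the two concentrations bracketing the appropriate inhibition level. GI50 = concentration required for 50% inhibition of growth. At the TGI there is no net growth.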

Among the test systems are 786-0 renal; A549 NSCLC; COLO 205 colon; HCT-15 colon; HOP-62 NSCLC; HS 578T breast; OVCAR-8 ovarian; SK-MEL-2 melanoma; T-47D breast; U251 CNS.
Holding throughout (assay): NCI-60 cell line screen, 48 h

On to `CC[C@@H]1[C@@H](C)O[C@@](O)([C@@H](C)[C@H](O)[C@H](C)[C@H]2OC(=O)/C=C/C=C/[C@H](C)[C@@H]([C@@H](C)[C@@H](O)[C@H](C)[C@@]3(O)C[C@@H](O[C@H]4C[C@@H](O)[C@H](O)C(C)O4)[C@H](CC)[C@@H](C)O3)OC(=O)/C=C/C=C/[C@@H]2C)C[C@H]1O[C@@H]1C[C@@H](O)[C@H](O)C(C)O1` (stereo not given in full), for which the GI50 was 0.125 µM in the assay on 786-0 renal; 0.112 µM in the assay on A549 NSCLC; 0.0795 µM with COLO 205 colon; 0.459 µM in the assay with HCT-15 colon; 0.073 µM in the assay on HOP-62 NSCLC; 0.0798 µM in the assay with HS 578T breast. In addition, the GI50 is 0.138 µM with OVCAR-8 ovarian, 0.0808 µM in the assay with SK-MEL-2 melanoma, 0.0949 µM with T-47D breast and 0.113 µM with U251 CNS. Besides, the TGI in the assay on 786-0 renal turned out to be 0.464 µM; in the assay on A549 NSCLC, 0.344 µM; with COLO 205 colon, 0.179 µM; in the assay with HCT-15 colon it was 0.924 µM; in the assay on HOP-62 NSCLC it was 0.171 µM; in the assay on HS 578T breast it was 0.253 µM. Further, the TGI in the assay with OVCAR-8 ovarian turned out to be 0.557 µM; with SK-MEL-2 melanoma, 0.197 µM; with T-47D breast, 0.34 µM; in the assay on U251 CNS, 0.39 µM.

As for `CSc1ccc(-c2ccccc(=O)c2O)cc1`, the GI50 is 0.447 µM in the assay with 786-0 renal; 0.896 µM in the assay on A549 NSCLC; 1.98 µM in the assay with COLO 205 colon; 0.172 µM with HCT-15 colon; 0.54 µM in the assay with HOP-62 NSCLC; 2.77 µM in the assay with HS 578T breast. The GI50 in the assay with OVCAR-8 ovarian is 0.39 µM; in the assay with SK-MEL-2 melanoma, 0.966 µM; with T-47D breast it was 0.985 µM; in the assay with U251 CNS, 0.568 µM. Also, the TGI in the assay with 786-0 renal was 12.6 µM; with A549 NSCLC, 83.8 µM; with COLO 205 colon, more than 100 µM; in the assay with HCT-15 colon, 29.7 µM; in the assay on HOP-62 NSCLC, 50.9 µM; in the assay with HS 578T breast, 99.7 µM. The TGI in the assay on OVCAR-8 ovarian is 64.8 µM; in the assay on SK-MEL-2 melanoma, 31.4 µM; with T-47D breast, more than 100 µM; in the assay with U251 CNS it was 24.6 µM.

For the compound `CCOC(=O)C1=C(C)N=c2s/c(=C\c3ccccc3O)c(=O)n2C1c1ccc(OC)c2ccccc12` (stereo not given), the GI50 with 786-0 renal was 2.59 µM; with A549 NSCLC it was 3.88 µM; in the assay with COLO 205 colon, 30.8 µM; with HCT-15 colon it was 8.69 µM; in the assay with HOP-62 NSCLC, 4.65 µM; in the assay on HS 578T breast it was 2.95 µM. Moreover, the GI50 with OVCAR-8 ovarian is 5.35 µM; with SK-MEL-2 melanoma, 32.3 µM; in the assay on T-47D breast it was 5.28 µM; in the assay with U251 CNS, 2.35 µM. Further, the TGI in the assay on 786-0 renal was 10.3 µM; with A549 NSCLC, 16.7 µM; with COLO 205 colon, more than 100 µM; in the assay with HCT-15 colon, more than 100 µM; in the assay with HOP-62 NSCLC, 14.6 µM; in the assay on HS 578T breast, 13.4 µM. The TGI with OVCAR-8 ovarian is 22 µM; in the assay on SK-MEL-2 melanoma, 87.1 µM; in the assay on T-47D breast it was 22.8 µM; with U251 CNS it was 6.58 µM.

On to `CC12OOC(c3ccccc31)c1c2ccc2ccccc12` (stereo not given), for which the TGI with 786-0 renal is 22.3 µM; in the assay on A549 NSCLC, 8.43 µM; in the assay on COLO 205 colon, 3.24 µM; in the assay with HCT-15 colon it was 5.09 µM; in the assay on HOP-62 NSCLC, 30.2 µM; in the assay with HS 578T breast, 78.7 µM. Further, the TGI in the assay on OVCAR-8 ovarian is 20.9 µM; in the assay with SK-MEL-2 melanoma, 24.9 µM; with T-47D breast, 3.84 µM; in the assay on U251 CNS it was 28.1 µM.

For the compound `O=C(c1ccco1)c1nc2cc(C(F)(F)F)ccc2nc1C(F)(F)F`, the GI50 in the assay with 786-0 renal was more than 100 µM; in the assay on A549 NSCLC it was more than 100 µM; in the assay with COLO 205 colon, more than 100 µM; in the assay with HCT-15 colon, more than 100 µM; in the assay on HOP-62 NSCLC, 71 µM; in the assay with HS 578T breast, more than 100 µM. Also, the GI50 is more than 100 µM in the assay with OVCAR-8 ovarian, more than 100 µM in the assay with SK-MEL-2 melanoma, 72 µM in the assay on T-47D breast and more than 100 µM in the assay on U251 CNS. Moreover, the TGI in the assay with 786-0 renal, in the assay with A549 NSCLC, in the assay with COLO 205 colon, in the assay on HCT-15 colon, in the assay with HOP-62 NSCLC and in the assay with HS 578T breast was more than 100 µM each time. Further, the TGI in the assay on OVCAR-8 ovarian, in the assay on SK-MEL-2 melanoma, in the assay with T-47D breast and in the assay on U251 CNS was more than 100 µM each time.

In the case of `O=C(COc1ccc(/C=C2\COc3ccccc3C2=O)cc1)Nc1nccs1`, the GI50 was 13.9 µM in the assay on 786-0 renal; 14.3 µM with A549 NSCLC; 14.6 µM with COLO 205 colon; 5.05 µM with HCT-15 colon; 16.8 µM with HOP-62 NSCLC; 2.74 µM with HS 578T breast. In addition, the GI50 with OVCAR-8 ovarian is 4.49 µM; in the assay with SK-MEL-2 melanoma, 10.8 µM; in the assay on T-47D breast, 16.1 µM; in the assay with U251 CNS it was 6.29 µM. Moreover, the TGI in the assay with 786-0 renal was determined as 28.1 µM; with A549 NSCLC, 47.4 µM; in the assay with COLO 205 colon it was 29 µM; with HCT-15 colon, 23.8 µM; with HOP-62 NSCLC, 33.1 µM; with HS 578T breast, 9.4 µM. Further, the TGI in the assay with OVCAR-8 ovarian amounted to 45.2 µM; in the assay on SK-MEL-2 melanoma, 24 µM; with T-47D breast it was 38.8 µM; in the assay on U251 CNS it was 19.1 µM.

On to `C=C(C)C1CC/C(C)=C/CCC2(C)OC2CC/C(CO)=C\C1O` (stereo not given), for which the TGI was more than 100 µM in the assay on 786-0 renal; more than 100 µM in the assay with A549 NSCLC; more than 100 µM in the assay with COLO 205 colon; more than 100 µM in the assay on HCT-15 colon; more than 100 µM in the assay on HOP-62 NSCLC; 53.5 µM with HS 578T breast. The TGI in the assay with OVCAR-8 ovarian, with SK-MEL-2 melanoma, with T-47D breast and in the assay with U251 CNS was more than 100 µM throughout.

For the compound `C=CCC(N[C@@H](CO)c1ccccc1)c1cn(Cc2ccccc2Cl)c(=O)n(Cc2ccccc2Cl)c1=O` (stereo not given in full), the GI50 in the assay with 786-0 renal, with A549 NSCLC, with COLO 205 colon, in the assay on HCT-15 colon, in the assay on HOP-62 NSCLC and in the assay on HS 578T breast was more than 100 µM each time. In addition, the GI50 with OVCAR-8 ovarian, in the assay on SK-MEL-2 melanoma, with T-47D breast and in the assay on U251 CNS was more than 100 µM in each case. Also, the TGI with 786-0 renal, with A549 NSCLC, in the assay with COLO 205 colon, with HCT-15 colon, in the assay on HOP-62 NSCLC and with HS 578T breast was more than 100 µM each time. Also, the TGI with OVCAR-8 ovarian, with SK-MEL-2 melanoma, in the assay with T-47D breast and in the assay with U251 CNS was more than 100 µM in each case.
